{
  "source": "patent US6525001B1",
  "about": "“Substituted pyrimidine and pyridine herbicides” (Mid-American Commercialization Corporation, priority 1997, dated 2003)",
  "format_in_all_cases": "in vivo",
  "key": {"[1]": {"tested_on": "arrowleaf sida (Sida rhombifolia)", "assay": "Test C", "parameters": "key: 0 was no effect; 100 was complete control", "conditions": "PREEMERGENCE"}, "[2]": {"tested_on": "cocklebur (Xanthium strumarium)", "assay": "Test C", "conditions": "PREEMERGENCE, Rate 140 g/ha"}, "corn (Zea mays)": {"tested_on": "corn (Zea mays)", "assay": "Test C", "parameters": "key: 0 was no effect; 100 was complete control", "conditions": "PREEMERGENCE"}, "[3]": {"tested_on": "hairy beggarticks (Bidens pilosa)", "assay": "Test C", "parameters": "key: 0 was no effect; 100 was complete control", "conditions": "PREEMERGENCE"}, "[4]": {"tested_on": "ivyleaf morningglory (Ipomoea hederacea)", "assay": "Test C", "conditions": "PREEMERGENCE"}, "[5]": {"tested_on": "large crabgrass (Digitaria sanguinalis)", "assay": "Test C", "parameters": "key: 0 was no effect; 100 was complete control", "conditions": "PREEMERGENCE"}, "[6]": {"tested_on": "purple nutsedge (Cyperus rotundus)", "assay": "Test C", "parameters": "key: 0 was no effect; 100 was complete control", "conditions": "PREEMERGENCE"}, "soybean (Glycine max)": {"tested_on": "soybean (Glycine max)", "assay": "Test C", "conditions": "PREEMERGENCE"}, "[7]": {"tested_on": "purple nutsedge (Cyperus rotundus)", "assay": "Test E pre-/postemergence/post directed", "parameters": "key: 0 is no injury; 100 is complete control", "description": "(§1) Seeds, tubers, or plant parts of alexandergrass (Brachiaria plantaginea), annual bluegrass (Poa annua), arrowleaf sida (Sida rhombifolia), barnyardgrass (Echinochloa crus-galli), bermudagrass (Cynodon dactylon), citrus (Citrus sinensis), common chickweed (Stellaria media), common purslane (Portulaca oleracea), common ragweed (Ambrosia elatior), common groundsel (Senecio vulgaris), dallisgrass (Paspalum dilatatum), goosegrass (Eleusine indica), green foxtail (Setaria viridis), guineagrass (Panicum maximum), itchgrass (Rottboellia exaltata), johnson grass (Sorghum halepense), kochia (Kochia scoparia), large crabgrass (Digitaria sanguinalis), leafy spurge (Euphorbia esula), pitted morningglory (Ipomoea lacunosa), purple nutsedge (Cyperus rotundus), quackgrass (Agropyron repens), Russian thistle (Salsola kali), sandbur (Cenchrus echinatus), sourgrass (Trichachne insularis), Spanishneedles (Bidens bipinnata), sugarcane (Saccharum officinarum), surinam grass (Brachiaria decumbens) and tall mallow (Malva sylvestris) were planted into greenhouse pots of flats containing greenhouse planting medium. Plant species were grown grown in separate pots or individual compartments. Preemergence applications were made within one day of planting the seed or plant part. Postemergence applications were applied when the plants were in the two to four leaf stage (three to twenty cm).\n(§2) Test chemicals were formulated in a non-phytotoxic solvent mixture which included a surfactant and applied preemergence to the soil surface, postemergence to the plants or as a post directed spray to plants and soil at the base of the target species. Untreated control plants and treated plants were placed in the greenhouse and visually evaluated for injury 13 to 21 days after herbicide application. Plant response ratings, summarized in Table E, are based on a 0 to 100 scale where 0 is no injury and 100 is complete control. A dash (−) response means no test result."}, "[8]": {"tested_on": "Spanishneedles (Bidens bipinnata)", "assay": "Test E pre-/postemergence/post directed", "description": "as §1, §2"}, "[9]": {"tested_on": "alexandergrass (Brachiaria plantaginea)", "assay": "Test E pre-/postemergence/post directed", "description": "as §1, §2"}, "[10]": {"tested_on": "bermudagrass (Cynodon dactylon)", "assay": "Test E pre-/postemergence/post directed", "description": "as §1, §2"}, "[11]": {"tested_on": "common groundsel (Senecio vulgaris)", "assay": "Test E pre-/postemergence/post directed", "conditions": "POSTEMERGENCE, Rate 250 g/ha", "description": "as §1, §2"}, "[12]": {"tested_on": "common ragweed (Ambrosia elatior)", "assay": "Test E pre-/postemergence/post directed", "description": "as §1, §2"}, "[13]": {"tested_on": "itchgrass (Rottboellia exaltata)", "assay": "Test E pre-/postemergence/post directed", "description": "as §1, §2"}, "[14]": {"tested_on": "johnson grass (Sorghum halepense)", "assay": "Test E pre-/postemergence/post directed", "description": "as §1, §2"}, "[15]": {"tested_on": "large crabgrass (Digitaria sanguinalis)", "assay": "Test E pre-/postemergence/post directed", "description": "as §1, §2"}, "[16]": {"tested_on": "pitted morningglory (Ipomoea lacunosa)", "assay": "Test E pre-/postemergence/post directed", "description": "as §1, §2"}, "[17]": {"tested_on": "sandbur (Cenchrus echinatus)", "assay": "Test E pre-/postemergence/post directed", "description": "as §1, §2"}},
  "data": [
    {"smiles": "COc1cnc(-c2ccc(C(F)(F)F)cc2)nc1Cc1cccc(C(F)(F)F)c1", "note": "[Compound 23]", "values": [
      {"measurement": "Plant response rating, Arrowleaf sida", "setting": "[1]; Rate 35 g/ha", "result": 80},
      {"measurement": "Plant response rating, Arrowleaf sida", "setting": "[1]; Rate 70 g/ha", "result": 100},
      {"measurement": "Plant response rating, Arrowleaf sida", "setting": "[1]; Rate 140 g/ha", "result": 100},
      {"measurement": "Plant response rating, Cocklebur", "setting": "[2]", "result": 5},
      {"measurement": "Plant response rating, Corn", "setting": "corn (Zea mays); Rate 35 g/ha", "result": 0},
      {"measurement": "Plant response rating, Corn", "setting": "corn (Zea mays); Rate 70 g/ha", "result": 0},
      {"measurement": "Plant response rating, Corn", "setting": "corn (Zea mays); Rate 140 g/ha", "result": 5},
      {"measurement": "Plant response rating, H. beggarticks", "setting": "[3]; Rate 35 g/ha", "result": 50},
      {"measurement": "Plant response rating, H. beggarticks", "setting": "[3]; Rate 70 g/ha", "result": 50},
      {"measurement": "Plant response rating, H. beggarticks", "setting": "[3]; Rate 140 g/ha", "result": 100},
      {"measurement": "Plant response rating, I. morningglory", "setting": "[4]; Rate 35 g/ha", "result": 5},
      {"measurement": "Plant response rating, I. morningglory", "setting": "[4]; Rate 140 g/ha", "result": 40},
      {"measurement": "Plant response rating, Large crabgrass", "setting": "[5]; Rate 35 g/ha", "result": 100},
      {"measurement": "Plant response rating, Large crabgrass", "setting": "[5]; Rate 70 g/ha", "result": 100},
      {"measurement": "Plant response rating, Large crabgrass", "setting": "[5]; Rate 140 g/ha", "result": 100},
      {"measurement": "Plant response rating, Purple nutsedge", "setting": "[6]; Rate 35 g/ha", "result": 0},
      {"measurement": "Plant response rating, Purple nutsedge", "setting": "[6]; Rate 70 g/ha", "result": 0},
      {"measurement": "Plant response rating, Purple nutsedge", "setting": "[6]; Rate 140 g/ha", "result": 0},
      {"measurement": "Plant response rating, Soybean", "setting": "soybean (Glycine max); Rate 35 g/ha", "result": 5},
      {"measurement": "Plant response rating, Soybean", "setting": "soybean (Glycine max); Rate 70 g/ha", "result": 5},
      {"measurement": "Plant response rating, Soybean", "setting": "soybean (Glycine max); Rate 140 g/ha", "result": 10},
      {"measurement": "Plant response rating, Purple nutsedge", "setting": "[7]; POSTEMERGENCE, Rate 250 g/ha", "result": 0},
      {"measurement": "Plant response rating, Purple nutsedge", "setting": "[7]; PREEMERGENCE, Rate 32 g/ha", "result": 0},
      {"measurement": "Plant response rating, Purple nutsedge", "setting": "[7]; PREEMERGENCE, Rate 64 g/ha", "result": 0},
      {"measurement": "Plant response rating, Purple nutsedge", "setting": "[7]; PREEMERGENCE, Rate 125 g/ha", "result": 0},
      {"measurement": "Plant response rating, Purple nutsedge", "setting": "[7]; PREEMERGENCE, Rate 250 g/ha", "result": 0},
      {"measurement": "Plant response rating, Spanishneedles", "setting": "[8]; POSTEMERGENCE, Rate 250 g/ha", "result": 10},
      {"measurement": "Plant response rating, Spanishneedles", "setting": "[8]; PREEMERGENCE, Rate 32 g/ha", "result": 60},
      {"measurement": "Plant response rating, Spanishneedles", "setting": "[8]; PREEMERGENCE, Rate 64 g/ha", "result": 70},
      {"measurement": "Plant response rating, Alexandergrass", "setting": "[9]; POSTEMERGENCE, Rate 250 g/ha", "result": 80},
      {"measurement": "Plant response rating, Alexandergrass", "setting": "[9]; PREEMERGENCE, Rate 125 g/ha", "result": 85},
      {"measurement": "Plant response rating, Alexandergrass", "setting": "[9]; PREEMERGENCE, Rate 250 g/ha", "result": 98},
      {"measurement": "Plant response rating, Bermudagrass", "setting": "[10]; POSTEMERGENCE, Rate 250 g/ha", "result": 10},
      {"measurement": "Plant response rating, Bermudagrass", "setting": "[10]; PREEMERGENCE, Rate 32 g/ha", "result": 90},
      {"measurement": "Plant response rating, Bermudagrass", "setting": "[10]; PREEMERGENCE, Rate 64 g/ha", "result": 98},
      {"measurement": "Plant response rating, Bermudagrass", "setting": "[10]; PREEMERGENCE, Rate 125 g/ha", "result": 98},
      {"measurement": "Plant response rating, Bermudagrass", "setting": "[10]; PREEMERGENCE, Rate 250 g/ha", "result": 98},
      {"measurement": "Plant response rating, Com. groundsel", "setting": "[11]", "result": 40},
      {"measurement": "Plant response rating, Com. ragweed", "setting": "[12]; POSTEMERGENCE, Rate 250 g/ha", "result": 40},
      {"measurement": "Plant response rating, Com. ragweed", "setting": "[12]; PREEMERGENCE, Rate 32 g/ha", "result": 50},
      {"measurement": "Plant response rating, Com. ragweed", "setting": "[12]; PREEMERGENCE, Rate 64 g/ha", "result": 70},
      {"measurement": "Plant response rating, Itchgrass", "setting": "[13]; POSTEMERGENCE, Rate 250 g/ha", "result": 80},
      {"measurement": "Plant response rating, Itchgrass", "setting": "[13]; PREEMERGENCE, Rate 32 g/ha", "result": 30},
      {"measurement": "Plant response rating, Itchgrass", "setting": "[13]; PREEMERGENCE, Rate 64 g/ha", "result": 60},
      {"measurement": "Plant response rating, Itchgrass", "setting": "[13]; PREEMERGENCE, Rate 125 g/ha", "result": 70},
      {"measurement": "Plant response rating, Itchgrass", "setting": "[13]; PREEMERGENCE, Rate 250 g/ha", "result": 70},
      {"measurement": "Plant response rating, Johnsongrass", "setting": "[14]; POSTEMERGENCE, Rate 250 g/ha", "result": 65},
      {"measurement": "Plant response rating, Johnsongrass", "setting": "[14]; PREEMERGENCE, Rate 32 g/ha", "result": 70},
      {"measurement": "Plant response rating, Johnsongrass", "setting": "[14]; PREEMERGENCE, Rate 64 g/ha", "result": 80},
      {"measurement": "Plant response rating, Johnsongrass", "setting": "[14]; PREEMERGENCE, Rate 125 g/ha", "result": 80},
      {"measurement": "Plant response rating, Johnsongrass", "setting": "[14]; PREEMERGENCE, Rate 250 g/ha", "result": 90},
      {"measurement": "Plant response rating, Large crabgrass", "setting": "[15]; POSTEMERGENCE, Rate 250 g/ha", "result": 40},
      {"measurement": "Plant response rating, Large crabgrass", "setting": "[15]; PREEMERGENCE, Rate 32 g/ha", "result": 98},
      {"measurement": "Plant response rating, Large crabgrass", "setting": "[15]; PREEMERGENCE, Rate 64 g/ha", "result": 98},
      {"measurement": "Plant response rating, P. morninglory", "setting": "[16]; POSTEMERGENCE, Rate 250 g/ha", "result": 40},
      {"measurement": "Plant response rating, P. morninglory", "setting": "[16]; PREEMERGENCE, Rate 125 g/ha", "result": 50},
      {"measurement": "Plant response rating, P. morninglory", "setting": "[16]; PREEMERGENCE, Rate 250 g/ha", "result": 80},
      {"measurement": "Plant response rating, Sandbur", "setting": "[17]; POSTEMERGENCE, Rate 250 g/ha", "result": 20},
      {"measurement": "Plant response rating, Sandbur", "setting": "[17]; PREEMERGENCE, Rate 32 g/ha", "result": 85},
      {"measurement": "Plant response rating, Sandbur", "setting": "[17]; PREEMERGENCE, Rate 64 g/ha", "result": 80},
      {"measurement": "Plant response rating, Sandbur", "setting": "[17]; PREEMERGENCE, Rate 125 g/ha", "result": 80},
      {"measurement": "Plant response rating, Sandbur", "setting": "[17]; PREEMERGENCE, Rate 250 g/ha", "result": 98}
    ]}
  ]
}
